# Experimental data published in US20230088704A1, “A PHARMACEUTICAL COMBINATION FOR THE TREATMENT OF A CANCER” (ABILITY PHARMACEUTICALS S.L., priority 2020, published 2023).
# Test system: Ishikawa cells
# Experiment: Human endometrial cancer xenograft, ABTL0812 with olaparib
# Assay type: in vivo
# Conditions: ABTL0812 oral 120 mg/kg/day; Olaparib oral 50 mg/kg/day
# Description: Methods: Mice were injected with 4×10^6 Ishikawa cells in one flank to induce tumor formation. […] Olaparib was administered by the oral route 50 mg/kg/day. Tumor volume and body weight were monitored 3 times a week.
structure (smiles),measurement,value
"CCCCC/C=C\C/C=C\CCCCCCC(O)C(=O)O (stereo not shown) [ABTL0812, COOH—CHOH—(CH2)6—(CH═CH—CH2)2—(CH2)3—CH3]",tumor volume,significantly reduced tumor volume
